Measured values published in US8143288B2, “Inhibitors of HCV replication” (priority 2005, dated 2012).
Where two headings read alike, the source gives them in different places.

Experiments:
[1] = tested on: HCV 1b-377-neo replicon cells; assay: HCV replicon FRET assay; format: cell-based; conditions: Hepatitis C virus
HCV replicon = assay: Combination studies in HCV replicon system (FRET, method of Chou); format: cell-based; conditions: for combination response: in combination with Example 3, replicon cells, 72 hours
Procedure: Since clinical drug resistance often develops in viral infections following single-agent therapies, there is a need to assess the additive, antagonistic, or synergistic properties of combination therapies. […] Drugs were tested at eleven concentrations each, diluted in DMSO by 3-fold dilutions. The highest concentration used for the four HCV inhibitors was 0.1 μM for Example 3 and 20 μM for the three other HCV antivirals. […] The drugs were tested as monotherapies and in combination with Example 3 at various concentration ratios. Cells were exposed to compounds for 72 hours and the amount of HCV inhibition was then determined using the FRET assay. The potential cytotoxicities of these combined agents were also analyzed in parallel by Alamar blue staining. The degree of antagonism or synergy was determined over a range of drug concentrations, and the combination response curves were fit to assess the antiviral effects of the drug treatment combinations. The concentration ratios were analyzed using the method of Chou. Table 5 reports the combination indices (CI) and the asymptotic confidence intervals at the different concentration ratios. All combination indices were tested for departure from additivity using isobologram methods.

[2] = Alamar blue cytotoxicity (CC50) in Y > H replicon cells; format: cell-based; conditions: human
Procedure: (§1) At subsequent various times (typically 72 hours), 10% final volume Alamar blue (Cat#00-100, Trek Diagnostics, Cleveland, Ohio) was added to each well. The plates were returned to the incubator for 5 hours and then read in the Cytoflour (PE Biosystems) to determine Alamar blue conversion in each well as a measure of cellular toxicity. After reading the Alamar blue fluorescence following the manufacturers directions, plates were rinsed 2× with PBS and then used for FRET assay by the addition of 30 μl of the FRET peptide assay reagent (described above) per well. The plate was then placed into the Cytoflour 4000 instrument which had been set to 340 excite/490 emission, automatic mode for 20 cycles and the plate read in a kinetic mode. Typically, the signal to noise using an endpoint analysis after the reads was at least three-fold.
The assay was further adapted to accommodate titrations of compounds to determine EC50 and CC50 values.
To determine if the Y2065H change was necessary and sufficient to confer resistance to Compound A, the single mutation was generated in the HCV 1b-377-neo replicon. […] To further verify this, colonies formed in the absence of Compound A were isolated and expanded for both the wild-type and Y2065H clones. Sensitivity of these cells to Compound A was then examined using the FRET assay.

[3] = Alamar blue cytotoxicity (CC50) in replicon cells; format: cell-based; conditions: human, wild-type HCV 1b-377-neo replicon cells
Procedure: as §1
Compound analysis depended upon the quantification of the relative HCV replicon inhibition and the relative cytotoxicity values. To calculate cytotoxicity values, the average alamar blue fluorescence signals from the control wells in row 11 were set as 100% non-toxic. The individual signals in each of the compound test wells were then divided by the average control signal and multiplied by 100% to determine […]. […]

[4] = tested on: Y2065H HCV 1b-377-neo replicon cells; assay: FRET assay on Y2065H (Y > H) replicon cells; format: cell-based
HCV = HCV therapy, Poynard et al. 1998; cited from earlier work
[5] = monotherapy, 72 hours, FRET assay, read-out: EC50 in monotherapy
[6] = combined with Example 3, molar ratio 1:1
[7] = combined with Example 3, molar ratio 1:2.5
[8] = combined with Example 3, molar ratio 2.5:1
[9] = HCV replicon, read-out: Activity (EC50)

Compound	EC50 [1, 9] [nM]	other results
C=CC1CC1(NC(=O)[C@@H]1C[C@@H](Oc2cc(-c3ccccc3)nc3cc(OC)ccc23)CN1C(=O)C(NC(=O)OC(C)(C)C)C(C)(C)C)C(=O)O (stereo partly drawn) [protease inhibitor]	–	EC50 [1, 5]: 330 nM; CI at HCV inhibition of: 75% (HCV replicon; [6]): 0.96 +/− 0.38; CI at HCV inhibition of: 90% (HCV replicon; [6]): 0.91 +/− 0.55; CI at HCV inhibition of: 95% (HCV replicon; [6]): 0.88 +/− 0.69; Overall Result (HCV replicon; [6]): Additive; CI at HCV inhibition of: 50% (HCV replicon; combined with Example 3, molar ratio 1:1 (first number Example 3)): 1.05 +/− 0.29; CI at HCV inhibition of: 75% (HCV replicon; [7]): 0.78 +/− 0.22; CI at HCV inhibition of: 90% (HCV replicon; [7]): 0.76 +/− 0.33; CI at HCV inhibition of: 95% (HCV replicon; [7]): 0.75 +/− 0.43; Overall Result (HCV replicon; [7]): Synergistic/Additive; CI at HCV inhibition of: 50% (HCV replicon; combined with Example 3, molar ratio 1:2.5 (first number Example 3)): 0.82 +/− 0.17; CI at HCV inhibition of: 75% (HCV replicon; [8]): 0.88 +/− 0.27; CI at HCV inhibition of: 90% (HCV replicon; [8]): 0.81 +/− 0.40; CI at HCV inhibition of: 95% (HCV replicon; [8]): 0.77 +/− 0.49; Overall Result (HCV replicon; [8]): Additive; CI at HCV inhibition of: 50% (HCV replicon; combined with Example 3, molar ratio 2.5:1 (first number Example 3)): 0.97 +/− 0.22; combination response (HCV replicon): additive response
O=C(Nc1ccc(/C=C/c2ccc(NC(=O)[C@@H]3CCCN3C(=O)Cc3ccccc3)cc2)cc1)[C@@H]1CCCN1C(=O)Cc1ccccc1 [Example 3]	0.1 to 90	CC50 at 72 h [2]: > 5000 nM; CC50 at 72 h [3]: > 5000 nM; EC50 ([1]; Wild-type replicon cells, FRET assay, read-out: EC50): < 50 nM; EC50 [1, 5]: < 50 nM; combination response (HCV replicon): no significant drug antagonism; EC50 ([4]; Hepatitis C virus): > 5000 nM; window of resistance in Y2065H cells as compared to wild-type cells ([4]; Y2065H vs wild-type cells): > 100 fold
alpha-interferon and ribavirin	–	sustained efficacy (HCV): 40 % of patients
O=C(Nc1ccc(/C=C/c2ccc(NC(=O)[C@@H]3CCCN3C(=O)N3CCCC3)cc2)cc1)[C@@H]1CCCN1C(=O)N1CCCC1 [Example 286]	100 to 1000	–
CC(=O)N1CCC[C@H]1C(=O)Nc1ccc(/C=C/c2ccc(NC(=O)[C@@H]3CCCN3C(=O)Cc3ccccc3)cc2)cc1 [Example 258]	0.1 to 90	–
O=C(Nc1ccc(/C=C/c2ccc(NC(=O)[C@@H]3CCCN3C(=O)C3CCC3)cc2)cc1)[C@@H]1CCCN1C(=O)c1ccccn1 [Example 85]	0.1 to 90	–
[N-]=[N+]=Nc1cccc(CC(=O)N2CCC[C@H]2C(=O)Nc2ccc(/C=C/c3ccc(NC(=O)[C@@H]4CCCN4C(=O)Cc4ccccc4)cc3)cc2)c1 [Example 126]	0.1 to 90	–
CC(C)(C)OC(=O)NC1(C(=O)N2CCC[C@H]2C(=O)Nc2ccc(/C=C/c3ccc(NC(=O)[C@@H]4CCCN4C(=O)C4(NC(=O)OC(C)(C)C)CC4)cc3)cc2)CC1 [Example 55]	100 to 1000	–
CCCOc1ccccc1C(=O)N1CCC[C@H]1C(=O)Nc1ccc(/C=C/c2ccc(NC(=O)[C@@H]3CCCN3C(=O)c3ccccc3OCCC)cc2)cc1 [Example 134]	1000 to 10000	–
COc1ccc2[nH]cc(CC(=O)N3CCC[C@H]3C(=O)Nc3ccc(/C=C/c4ccc(NC(=O)[C@@H]5CCCN5C(=O)Cc5c[nH]c6ccc(OC)cc56)cc4)cc3)c2c1 [Example 35]	0.1 to 90	–
CCC/C=C/c1cccnc1C(=O)N1CCC[C@H]1C(=O)Nc1ccc(/C=C/c2ccc(NC(=O)[C@@H]3CCCN3C(=O)c3ncccc3/C=C/CCC)cc2)cc1 [Example 235]	1000 to 10000	–
O=C(Nc1ccc(/C=C/c2ccc(NC(=O)[C@@H]3C[C@@H](O)CN3C(=O)OCc3ccccc3)cc2)cc1)[C@@H]1CCCN1C(=O)Cc1ccccc1 [Example 275]	0.1 to 90	–
O=C(Nc1ccc(/C=C/c2ccc(NC(=O)[C@@H]3CCCN3C(=O)c3ccc(C(F)(F)F)nc3Cl)cc2)cc1)[C@@H]1CCCN1C(=O)c1ccc(C(F)(F)F)nc1Cl [Example 195]	1000 to 10000	–
CCCOc1ccccc1C(=O)N1C[C@@H](N(C)C)C[C@H]1C(=O)Nc1ccc(CCc2ccc(NC(=O)[C@@H]3C[C@H](N(C)C)CN3C(=O)c3ccccc3OCCC)cc2)cc1 [Example 224]	1000 to 10000	–
CN1CCC[C@H]1C(=O)N1CCC[C@H]1C(=O)Nc1ccc(/C=C/c2ccc(NC(=O)[C@@H]3CCCN3C(=O)[C@@H]3CCCN3C)cc2)cc1 [Example 157]	1000 to 10000	–
Cc1ccccc1S(=O)(=O)N1CCC[C@H]1C(=O)Nc1ccc(/C=C/c2ccc(NC(=O)[C@@H]3CCCN3S(=O)(=O)c3ccccc3C)cc2)cc1 [Example 282]	1000 to 10000	–
CC(C)(C)OC(=O)n1cc(C(=O)N2CCC[C@H]2C(=O)Nc2ccc(/C=C/c3ccc(NC(=O)[C@@H]4CCCN4C(=O)c4cn(C(=O)OC(C)(C)C)c5ccccc45)cc3)cc2)c2ccccc21 [Example 208]	1000 to 10000	–
O=C(Nc1ccc(/C=C/c2ccc(NC(=O)[C@@H]3CCCN3C(=O)c3cccnc3Sc3ccccc3)cc2)cc1)[C@@H]1CCCN1C(=O)c1cccnc1Sc1ccccc1 [Example 196]	1000 to 10000	–
O=C(Nc1ccc(/C=C/c2ccc(NC(=O)[C@@H]3CCCN3C(=O)[C@@H]3CCCN3Cc3ccccc3)cc2)cc1)[C@@H]1CCCN1C(=O)[C@@H]1CCCN1Cc1ccccc1 [Example 164]	1000 to 10000	–
CCOC(=O)N1CCC[C@H]1C(=O)Nc1ccc(/C=C/c2ccc(NC(=O)[C@@H]3CCCN3C(=O)OCC)cc2)cc1 [Example 57]	100 to 1000	–
O=C(Nc1ccc(/C=C/c2ccc(NC(=O)[C@@H]3CCCN3C(=O)c3ncoc3-c3ccccc3)cc2)cc1)[C@@H]1CCCN1C(=O)c1ncoc1-c1ccccc1 [Example 184]	100 to 1000	–
O=C(Nc1ccc(/C=C/c2ccc(NC(=O)[C@@H]3CCCN3C(=O)c3ccccc3NCc3ccco3)cc2)cc1)[C@@H]1CCCN1C(=O)c1ccccc1NCc1ccco1 [Example 170]	100 to 1000	–
O=C(Nc1ccc(/C=C/c2ccc(NC(=O)[C@@H]3CCCN3C(=O)c3ccccc3NCc3ccccc3)cc2)cc1)[C@@H]1CCCN1C(=O)CC1CC1 [Example 152]	100 to 1000	–
O=C(Nc1ccc(/C=C/c2ccc(NC(=O)[C@@H]3C[C@@H](O)CN3C(=O)OCc3ccccc3)cc2)cc1)[C@@H]1C[C@@H](O)CN1C(=O)OCc1ccccc1 [Example 4]	0.1 to 90	–
CC(=O)N1CCC[C@H]1C(=O)Nc1ccc(/C=C/c2ccc(NC(=O)[C@@H]3CCCN3C(=O)Cc3cccnc3)cc2)cc1 [Example 50]	0.1 to 90	–
CN(C)C(=O)N1CCC[C@H]1C(=O)Nc1ccc(/C=C/c2ccc(NC(=O)[C@@H]3CCCN3C(=O)N(C)C)cc2)cc1 [Example 288]	100 to 1000	–
CC(=O)N1C[C@H](O)C[C@H]1C(=O)Nc1ccc(/C=C/c2ccc(NC(=O)[C@@H]3CCCN3C(=O)Cc3ccccc3)cc2)cc1 [Example 272]	100 to 1000	–
O=C(Nc1ccc(/C=C/c2ccc(N(C(=O)c3cccs3)C(=O)[C@@H]3CCCN3C(=O)c3cccs3)cc2)cc1)[C@@H]1CCCN1C(=O)c1cccs1 [Example 117]	0.1 to 90	–
